Consider 13 compounds from patent US20260070945A1, “MACROCYCLIC IMMUNOMODULATORS” (Bristol-Myers Squibb Company, priority 2022, published 2026).

For orientation: pIC50 means −log10 of the IC50, conventionally taken in molar units.

pIC50: −log10 of the molar value. *1 amine or outer side, *2 acyl side, *3 side chain or, on linkers, in order; H or OH if unused. Where a SMILES comes first, the peptide text is derived from it. Bridges are numbered along the chain shown (N, C = ends). [ ]: non-standard residue; d: D form. The star is where a group is joined. ξ: configuration not given here. Phe(4-COOH) = N[C@@H](Cc1ccc(C(=O)O)cc1)C(=O)O; Bip = N[C@@H](Cc1ccc(-c2ccccc2)cc1)C(=O)O; Phe(3-Me) = Cc1cccc(C[C@H](N)C(=O)O)c1; γGlu = O=C(O)[C@H](CCC(=O)[*:2])N[*:1]; hArg = N=C(N)NCCCC[C@H](N)C(=O)O; 4Pal = N[C@@H](Cc1ccncc1)C(=O)O; Cha = N[C@@H](CC1CCCCC1)C(=O)O; Thr(3ξ) = CC(O)[C@H](N)C(=O)O; NMeNle = CCCC[C@H](NC)C(=O)O; 12Ado = NCCCCCCCCCCCC(=O)O; dDab = NCC[C@@H](N)C(=O)O; β3hS = N[C@@H](CO)CC(=O)O; Carboxymethyl = O=C(O)C*; NMeA = CN[C@@H](C)C(=O)O; Orn = NCCC[C@H](N)C(=O)O; Aun = NCCCCCCCCCCC(=O)O; Dab = NCC[C@H](N)C(=O)O; Abu = CC[C@H](N)C(=O)O; AEEA = NCCOCCOCC(=O)O

For this experiment, the target named is T1, PD-1/PD-L1 interaction (PE-labeled human PD-L1-Ig binding to Jurkat cell line over-expressing human PD-1) (Homo sapiens, UniProt Q15116).
T1 construct: expressed in transfected cells; host or cells: Jurkat
T1 sequence (Q15116 25-288): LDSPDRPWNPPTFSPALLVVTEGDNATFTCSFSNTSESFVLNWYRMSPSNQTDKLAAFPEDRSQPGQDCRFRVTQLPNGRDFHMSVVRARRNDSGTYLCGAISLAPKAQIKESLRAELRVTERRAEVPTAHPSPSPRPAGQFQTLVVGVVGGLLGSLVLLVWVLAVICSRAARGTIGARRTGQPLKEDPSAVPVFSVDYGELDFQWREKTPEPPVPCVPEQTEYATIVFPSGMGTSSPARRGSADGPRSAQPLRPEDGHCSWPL
Nature of the experiment: Jurkat-PD-1 Cell Binding High-Content Screening Assay (CBA). The following applies: Jurkat-hPD-1 cells, PE-labeled PD-L1-Ig 20 nM final; read-out: Jurkat HPD1 PDL1 IC50. The procedure, abridged: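 Binding of 20 nM (final) PE-tagged PD-L1-Ig to compound-pretreated Jurkat-hPD-1 cells was measured by high-content imaging after 1 h. Pretreatment ran 2 h at 37 °C in DMEM with 10% fetal calf serum.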
Consider `CC(C)C[C@H]1NC(=O)[C@H](C)N(C)C(=O)[C@H](C(C)C)NC(=O)[C@H](Cc2ccc(-c3ccccc3)cc2)NC(=O)[C@H](C(C)C)NC(=O)[C@H](Cc2c[nH]c3ccccc23)NC(=O)[C@H](CC(=O)O)NC(=O)[C@H](Cc2ccc(C(=O)O)cc2)NC(=O)[C@H](Cc2ccc(OCC(=O)O)cc2)NC(=O)CSC[C@@H](C(=O)N[C@@H](CCCCN)C(=O)NCCOCCOCC(=O)NCCCCCCCCCCC(=O)O)NC(=O)[C@H](CO)NC(=O)[C@H](C(C)C)NC(=O)[C@H](CC2CCCCC2)NC(=O)[C@@H](CCN)NC1=O` [Example 2112] ({CH2CO}-Y(Carboxymethyl)[Phe(4-COOH)]DWV[Bip]V[NMeA][dL][dDab][Cha]VSCK[AEEA][Aun]-OH; thioether N-14), for which the pIC50 is 7.41.
In the case of `CCCC[C@H]1C(=O)N[C@H](CC(C)C)C(=O)N[C@@H](CCN)C(=O)N[C@@H](CC2CCCCC2)C(=O)N[C@@H](C(C)C)C(=O)N[C@@H](C(C)O)C(=O)N[C@H](C(=O)N[C@@H](CCCN)C(=O)NCCOCCOCC(=O)NCCCCCCCCCCC(=O)O)CSCC(=O)N[C@@H](Cc2ccncc2)C(=O)N[C@@H](Cc2ccc(OCC(=O)O)cc2)C(=O)N[C@@H](CC(=O)O)C(=O)N[C@@H](Cc2c[nH]c3ccccc23)C(=O)N[C@@H](C(C)C)C(=O)N[C@@H](Cc2ccc(-c3ccccc3)cc2)C(=O)N[C@@H](CC(C)C)C(=O)N1C` (stereo partly drawn) [Example 2114] ({CH2CO}-[4Pal]Y(Carboxymethyl)DWV[Bip]L[NMeNle][dL][Dab][Cha]V[Thr(3ξ)]C[Orn][AEEA][Aun]-OH; thioether N-14) it was 6.99.
On to `CCCC[C@H]1C(=O)N[C@H](CC(C)C)C(=O)N[C@@H](CCN)C(=O)N[C@@H](CC2CCCCC2)C(=O)N[C@@H](C(C)C)C(=O)N[C@@H](C(C)O)C(=O)N[C@H](C(=O)N[C@@H](CCCCN)C(=O)NCCOCCOCC(=O)NCCCCCCCCCCC(=O)O)CSCC(=O)N[C@@H](Cc2ccncc2)C(=O)N[C@@H](Cc2ccc(OCC(=O)O)cc2)C(=O)N[C@@H](CC(=O)O)C(=O)N[C@@H](Cc2c[nH]c3ccccc23)C(=O)N[C@@H](C(C)C)C(=O)N[C@@H](Cc2ccc(-c3ccccc3)cc2)C(=O)N[C@@H](CC(C)C)C(=O)N1C` (stereo partly drawn) [Example 2115] ({CH2CO}-[4Pal]Y(Carboxymethyl)DWV[Bip]L[NMeNle][dL][Dab][Cha]V[Thr(3ξ)]CK[AEEA][Aun]-OH; thioether N-14), for which the pIC50 was 6.57.
As to `CC(C)C[C@H]1NC(=O)[C@H](C)N(C)C(=O)[C@H](C(C)C)NC(=O)[C@H](Cc2ccc(-c3ccccc3)cc2)NC(=O)[C@H](C(C)C)NC(=O)[C@H](Cc2c[nH]c3ccccc23)NC(=O)[C@H](CC(=O)O)NC(=O)[C@H](Cc2ccncc2)NC(=O)[C@H](Cc2ccc(OCC(=O)O)cc2)NC(=O)CSC[C@@H](C(=O)N[C@@H](CCCCN)C(=O)NCCCCCCCCCCC(=O)O)NC(=O)C[C@H](CO)NC(=O)[C@H](C(C)C)NC(=O)[C@H](CC2CCCCC2)NC(=O)[C@H](CCN)NC1=O` [Example 2116] ({CH2CO}-Y(Carboxymethyl)[4Pal]DWV[Bip]V[NMeA][dL][Dab][Cha]V[β3hS]CK[Aun]-OH; thioether N-14), the pIC50 was 7.20.
For the compound `CC(C)C[C@H]1NC(=O)[C@H](C)N(C)C(=O)[C@H](C(C)C)NC(=O)[C@H](Cc2ccc(-c3ccccc3)cc2)NC(=O)[C@H](C(C)C)NC(=O)[C@H](Cc2c[nH]c3ccccc23)NC(=O)[C@H](CC(=O)O)NC(=O)[C@H](Cc2ccncc2)NC(=O)[C@H](Cc2ccc(OCC(=O)O)cc2)NC(=O)CSC[C@@H](C(=O)N[C@@H](CCN)C(=O)NCCOCCOCC(=O)NCCCCCCCCCCCC(=O)O)NC(=O)[C@H](CO)NC(=O)[C@H](C(C)C)NC(=O)[C@H](CC2CCCCC2)NC(=O)[C@H](CCN)NC1=O` [Example 2117] ({CH2CO}-Y(Carboxymethyl)[4Pal]DWV[Bip]V[NMeA][dL][Dab][Cha]VSC[Dab][AEEA][12Ado]-OH; thioether N-14), the negative logarithm of the IC50 (pIC50) was 7.52.
Turning to `CC(C)C[C@H]1NC(=O)[C@H](C)N(C)C(=O)[C@H](C(C)C)NC(=O)[C@H](Cc2ccc(-c3ccccc3)cc2)NC(=O)[C@H](C(C)C)NC(=O)[C@H](Cc2c[nH]c3ccccc23)NC(=O)[C@H](CC(=O)O)NC(=O)[C@H](Cc2ccc(OCC(=O)O)cc2)NC(=O)[C@H](Cc2ccncc2)NC(=O)CSC[C@@H](C(=O)N[C@@H](CCN)C(=O)NCCOCCOCC(=O)N[C@@H](CCC(=O)NCCOCCOCC(=O)N[C@@H](CCCCN)C(=O)NCCCCCCCCCCCC(=O)O)C(=O)O)NC(=O)[C@H](CO)NC(=O)[C@H](C(C)C)NC(=O)[C@H](CC2CCCCC2)NC(=O)[C@H](CCN)NC1=O` [Example 2118] ({CH2CO}-[4Pal]Y(Carboxymethyl)DWV[Bip]V[NMeA][dL][Dab][Cha]VSC[Dab][AEEA][γGlu][AEEA]K[12Ado]-OH; thioether N-14), the negative-log IC50 (pIC50) is 7.84.
Consider `CC(C)C[C@@H]1NC(=O)[C@H](Cc2c[nH]c3ccccc23)NC(=O)[C@H](CC(=O)O)NC(=O)[C@H](Cc2ccc(OCC(=O)O)cc2)NC(=O)[C@H](CCCCNC(=N)N)NC(=O)CSC[C@@H](C(=O)NCC(=O)N[C@@H](CCN)C(=O)NCCCCCCCCCCC(=O)O)NC(=O)[C@H](CO)NC(=O)[C@H](C(C)C)NC(=O)[C@H](CC2CCCCC2)NC(=O)[C@H](CCN)NC(=O)[C@@H](CC(C)C)NC(=O)[C@H](C)N(C)C(=O)[C@H](C(C)C)NC(=O)[C@H](Cc2ccc(-c3ccccc3)cc2)NC1=O` [Example 2120] ({CH2CO}-[hArg]Y(Carboxymethyl)DWL[Bip]V[NMeA][dL][Dab][Cha]VSCG[Dab][Aun]-OH; thioether N-14), for which the pIC50 was 7.75.
As for `CC(C)C[C@@H]1NC(=O)[C@H](Cc2c[nH]c3ccccc23)NC(=O)[C@H](CC(=O)O)NC(=O)[C@H](Cc2ccc(OCC(=O)O)cc2)NC(=O)[C@H](CCCCNC(=N)N)NC(=O)CSC[C@@H](C(=O)NCC(=O)N[C@@H](CCCN)C(=O)NCCCCCCCCCCCC(=O)O)NC(=O)[C@H](CO)NC(=O)[C@H](C(C)C)NC(=O)[C@H](CC2CCCCC2)NC(=O)[C@H](CCN)NC(=O)[C@@H](CC(C)C)NC(=O)[C@H](C)N(C)C(=O)[C@H](C(C)C)NC(=O)[C@H](Cc2ccc(-c3ccccc3)cc2)NC1=O` [Example 2121] ({CH2CO}-[hArg]Y(Carboxymethyl)DWL[Bip]V[NMeA][dL][Dab][Cha]VSCG[Orn][12Ado]-OH; thioether N-14), the pIC50 is 7.71.
On to `Cc1cccc(C[C@@H]2NC(=O)[C@H](CC(=O)O)NC(=O)[C@H](Cc3ccc(OCC(=O)O)cc3)NC(=O)[C@H](CCCCNC(=N)N)NC(=O)CSC[C@@H](C(=O)N[C@@H](CO)C(=O)NCCOCCOCC(=O)N[C@@H](CCCN)C(=O)NCCCCCCCCCCCC(=O)O)NC(=O)[C@H](CO)NC(=O)[C@H](C(C)C)NC(=O)[C@H](CC3CCCCC3)NC(=O)[C@H](CCN)NC(=O)[C@@H](CC(C)C)NC(=O)[C@H](C)N(C)C(=O)[C@H](C(C)C)NC(=O)[C@H](Cc3ccc(-c4ccccc4)cc3)NC(=O)[C@H](CC(C)C)NC2=O)c1` [Example 2122] ({CH2CO}-[hArg]Y(Carboxymethyl)D[Phe(3-Me)]L[Bip]V[NMeA][dL][Dab][Cha]VSCS[AEEA][Orn][12Ado]-OH; thioether N-14), for which the pIC50 was 7.80.
As to `CC(C)C[C@@H]1NC(=O)[C@H](Cc2c[nH]c3ccccc23)NC(=O)[C@H](CC(=O)O)NC(=O)[C@H](Cc2ccc(OCC(=O)O)cc2)NC(=O)[C@H](CCCCNC(=N)N)NC(=O)CSC[C@@H](C(=O)NCC(=O)NCCOCCOCC(=O)N[C@@H](CCCN)C(=O)NCCCCCCCCCCCC(=O)O)NC(=O)[C@H](CO)NC(=O)[C@H](C(C)C)NC(=O)[C@H](CC2CCCCC2)NC(=O)[C@H](CCN)NC(=O)[C@@H](CC(C)C)NC(=O)[C@H](C)N(C)C(=O)[C@H](C(C)C)NC(=O)[C@H](Cc2ccc(-c3ccccc3)cc2)NC1=O` [Example 2123] ({CH2CO}-[hArg]Y(Carboxymethyl)DWL[Bip]V[NMeA][dL][Dab][Cha]VSCG[AEEA][Orn][12Ado]-OH; thioether N-14), the pIC50 was 7.94.
On to `CC[C@@H]1NC(=O)[C@H](C(C)C)NC(=O)[C@H](CC2CCCCC2)NC(=O)[C@H](CCN)NC(=O)[C@@H](CC(C)C)NC(=O)[C@H](C)N(C)C(=O)[C@H](C(C)C)NC(=O)[C@H](Cc2ccc(-c3ccccc3)cc2)NC(=O)[C@H](CC(C)C)NC(=O)[C@H](Cc2c[nH]c3ccccc23)NC(=O)[C@H](CC(=O)O)NC(=O)[C@H](Cc2ccc(OCC(=O)O)cc2)NC(=O)[C@H](CCCCNC(=N)N)NC(=O)CSC[C@@H](C(=O)NCC(=O)NCCOCCOCC(=O)N[C@@H](CCCN)C(=O)NCCCCCCCCCCCC(=O)O)NC1=O` [Example 2124] ({CH2CO}-[hArg]Y(Carboxymethyl)DWL[Bip]V[NMeA][dL][Dab][Cha]V[Abu]CG[AEEA][Orn][12Ado]-OH; thioether N-14), for which the pIC50 was 7.77.
In the case of `CC(C)C[C@@H]1NC(=O)[C@H](Cc2c[nH]c3ccccc23)NC(=O)[C@H](CC(=O)O)NC(=O)[C@H](Cc2ccc(C(=O)O)cc2)NC(=O)[C@H](Cc2ccc(OCC(=O)O)cc2)NC(=O)CSC[C@@H](C(=O)N[C@@H](CCCN)C(=O)NCCOCCOCC(=O)NCCCCCCCCCCC(=O)O)NC(=O)[C@H](CC(=O)O)NC(=O)[C@H](C(C)C)NC(=O)[C@H](CC2CCCCC2)NC(=O)[C@H](CCN)NC(=O)[C@@H](CC(C)C)NC(=O)[C@H](C)N(C)C(=O)[C@H](C(C)C)NC(=O)[C@H](Cc2ccc(-c3ccccc3)cc2)NC1=O` [Example 2125] ({CH2CO}-Y(Carboxymethyl)[Phe(4-COOH)]DWL[Bip]V[NMeA][dL][Dab][Cha]VDC[Orn][AEEA][Aun]-OH; thioether N-14) it was 7.94; in that of `CC(C)C[C@@H]1NC(=O)[C@H](Cc2c[nH]c3ccccc23)NC(=O)[C@H](CC(=O)O)NC(=O)[C@H](Cc2ccc(C(=O)O)cc2)NC(=O)[C@H](Cc2ccc(OCC(=O)O)cc2)NC(=O)CSC[C@@H](C(=O)N[C@@H](CCCN)C(=O)NCCOCCOCC(=O)NCCCCCCCCCCC(=O)O)NC(=O)[C@H](CCC(=O)O)NC(=O)[C@H](C(C)C)NC(=O)[C@H](CC2CCCCC2)NC(=O)[C@H](CCN)NC(=O)[C@@H](CC(C)C)NC(=O)[C@H](C)N(C)C(=O)[C@H](C(C)C)NC(=O)[C@H](Cc2ccc(-c3ccccc3)cc2)NC1=O` [Example 2126] ({CH2CO}-Y(Carboxymethyl)[Phe(4-COOH)]DWL[Bip]V[NMeA][dL][Dab][Cha]VEC[Orn][AEEA][Aun]-OH; thioether N-14), 8.08.
